Activity and inhibition in vivo data for 23 molecules are collected here from ChEMBL document CHEMBL3046808, “Novel 2-(E)-substituted benzylidene-6-(N-substituted aminomethyl)cyclohexanones and cyclohexanols as analgesic and anti-inflammatory agents” (2013).

The structures appear in SMILES notation.

What all share (type): functional
Assay [1] deals with Mus musculus. The experiment in a line: Analgesic activity in Kunming Mus musculus (mouse) assessed as increase in pain threshold at 200 mg/kg, po after 1 hr by hot plate method (reference value: 4.2%).
Assay [2] has as its system Mus musculus. The experiment in a line: Analgesic activity in Kunming Mus musculus (mouse) assessed as inhibition of acetic acid-induced writhing at 200 mg/kg, po administered 1 hr prior to acetic acid challenge measured for 15 min relative to untreated control.
Assay [3] deals with Rattus norvegicus. Briefly: Anti-inflammatory activity in Wistar Rattus norvegicus (rat) assessed as inhibition of carrageenan-induced paw edema at 200 mg/kg, po administered 1 hr prior to carrageenan-challenge measured after 3 hr relative to untreated control.
For assay [4], the system named is Mus musculus. The experiment in a line: Anti-inflammatory activity in Kunming Mus musculus (mouse) assessed as inhibition of xylene-induced ear swelling at 200 mg/kg, po administered 1 hr prior to xylene challenge measured after 30 min relative to untreated control.

`Cc1cccc(N(C)CC2CCC/C(=C\c3ccc(S(C)(=O)=O)cc3)C2=O)c1` (configuration not stated): the Activity in assay [1] is given as 109.98%. Moreover, the inhibition in vivo at 200 mg/kg is 72.8% in assay [2], 36.2% in assay [3] and 36.7% in assay [4].

For the molecule `Cc1ccc(NCC2CCC/C(=C\c3ccccc3)C2=O)cc1` (configuration not stated), in assay [1], the Activity was 166.19%. The inhibition in vivo at 200 mg/kg in assay [2] amounted to 82.8%; in assay [3] it was 72.3%; in assay [4] it was 56.4%.

Turning to `CN(CC1CCC/C(=C\c2ccccc2)C1=O)c1ccccc1` (configuration not stated), the Activity in assay [1] worked out at 109.59%. In addition, the inhibition in vivo at 200 mg/kg in assay [2] was 69.7%; in assay [3], 76.6%; in assay [4], 49.7%.

`Cc1ccc(N(C)CC2CCC/C(=C\c3ccccc3)C2=O)cc1` (configuration not stated): the Activity in assay [1] is 146.12%. The results for the inhibition in vivo at 200 mg/kg in assay [2], in assay [3] and in assay [4] were 81%, 25.5% and 18.2%, respectively.

As to `Cc1cccc(N(C)CC2CCC/C(=C\c3ccccc3)C2=O)c1` (configuration not stated), the Activity in assay [1] worked out at 108.45%. Moreover, the inhibition in vivo at 200 mg/kg in assay [2] was found to be 76.7%; in assay [3], 46.8%; in assay [4] it was 44.9%.

As to `Cc1ccc(/C=C2\CCCC(CN(C)c3ccccc3)C2=O)cc1` (configuration not stated), the Activity in assay [1] was 79.04%. Besides, the inhibition in vivo at 200 mg/kg in assay [2] is 68.2%; in assay [3], 44.7%; in assay [4] it was 39.5%.

In the case of `Cc1ccc(/C=C2\CCCC(CN(C)c3ccc(C)cc3)C2=O)cc1` (configuration not stated), the Activity in assay [1] was 71.6%. The results for the inhibition in vivo at 200 mg/kg in assay [2], in assay [3] and in assay [4] were 76.5%, 38.3% and 27.6%, respectively.

Regarding `Cc1ccc(/C=C2\CCCC(CN(C)c3cccc(C)c3)C2=O)cc1` (configuration not stated), in assay [1], the Activity is reported as 75.5%. Further, the inhibition in vivo at 200 mg/kg in assay [2] was 75.8%; in assay [3] it was 36.2%; in assay [4], 35.4%.

Regarding `CN(CC1CCC/C(=C\c2ccc(S(C)(=O)=O)cc2)C1=O)c1ccccc1` (configuration not stated), in assay [1], the Activity came out at 142.7%. The inhibition in vivo at 200 mg/kg in assay [2] stood at 81%; in assay [3], 51.1%; in assay [4], 46.9%.

Consider `Cc1ccc(N(C)CC2CCC/C(=C\c3ccc(S(C)(=O)=O)cc3)C2=O)cc1` (configuration not stated), for which the Activity in assay [1] is given as 155.12%. Also, the inhibition in vivo at 200 mg/kg in assay [2] was 84.5%; in assay [3], 31.9%; in assay [4], 27%.

Consider `Cc1ccc(N(C)CC2CCC/C(=C\c3ccccc3)C2(O)c2ccccc2)cc1` (racemic), for which the Activity in assay [1] is 70.08%. Also, the results for the inhibition in vivo at 200 mg/kg in assay [2], in assay [3] and in assay [4] were 64.2%, 59.6% and 66.7%, respectively.

Consider `Cc1cccc(N(C)CC2CCC/C(=C\c3ccccc3)C2(O)c2ccccc2)c1` (racemic), for which the Activity in assay [1] was determined as 83.22%. The inhibition in vivo at 200 mg/kg in assay [2] came out at 70.6%; in assay [3], 36.2%; in assay [4] it was 23.1%.

`COc1cccc(C2(O)/C(=C/c3ccccc3)CCCC2CN(C)c2ccccc2)c1` (racemic): the Activity in assay [1] was found to be 162.71%. In addition, the inhibition in vivo at 200 mg/kg in assay [2] turned out to be 82.2%; in assay [3], 38.3%; in assay [4], 34.7%.

For the molecule `COc1cccc(C2(O)/C(=C/c3ccccc3)CCCC2CN(C)c2ccc(C)cc2)c1` (racemic), the Activity in assay [1] was 110.54%. Besides, the inhibition in vivo at 200 mg/kg was found to be 77.8% in assay [2], 57.5% in assay [3] and 41.5% in assay [4].

As for `COc1cccc(C2(O)/C(=C/c3ccccc3)CCCC2CN(C)c2cccc(C)c2)c1` (racemic), in assay [1], the Activity came to 116.52%. The inhibition in vivo at 200 mg/kg in assay [2] was 79.9%; in assay [3], 44.7%; in assay [4] it was 36%.

With `COc1ccc(C2(O)/C(=C/c3ccccc3)CCCC2CN(C)c2ccccc2)cc1` (racemic), the Activity in assay [1] is reported as 121.45%. Moreover, the inhibition in vivo at 200 mg/kg was 75.7% in assay [2], 38.3% in assay [3] and 26.5% in assay [4].

`COc1ccc(C2(O)/C(=C/c3ccccc3)CCCC2CN(C)c2ccc(C)cc2)cc1` (racemic): the Activity in assay [1] is on record as 117.46%. Moreover, the inhibition in vivo at 200 mg/kg was found to be 78.7% in assay [2], 21.3% in assay [3] and 26.5% in assay [4].

In the case of `COc1cccc(C2(C)/C(=C/c3ccc(C)cc3)CCCC2CN(C)c2ccccc2)c1` (racemic), in assay [1], the Activity stood at 153.01%. The inhibition in vivo at 200 mg/kg was 80.9% in assay [2], 25.5% in assay [3] and 18% in assay [4].

On to `COc1cccc(C2(O)/C(=C/c3ccc(C)cc3)CCCC2CN(C)c2ccc(C)cc2)c1` (racemic), for which the Activity in assay [1] was 125.34%. The inhibition in vivo at 200 mg/kg worked out at 81.6% in assay [2], 21.3% in assay [3] and 22.9% in assay [4].

With `COc1ccc(C2(O)/C(=C/c3ccc(C)cc3)CCCC2CN(C)c2ccccc2)cc1` (racemic), the Activity in assay [1] came out at 106.84%. The inhibition in vivo at 200 mg/kg in assay [2] amounted to 72.1%; in assay [3], 17%; in assay [4], 16.3%.

Consider `COc1ccc(C2(O)/C(=C/c3ccc(C)cc3)CCCC2CN(C)c2ccc(C)cc2)cc1` (racemic), for which the Activity in assay [1] was determined as 93.41%. Also, the figures for the inhibition in vivo at 200 mg/kg in assay [2], in assay [3] and in assay [4] were 62.2%, 29.8% and 29.9%, respectively.

Regarding `COc1ccc(C2(O)/C(=C/c3ccc(C)cc3)CCCC2CN(C)c2cccc(C)c2)cc1` (racemic), the Activity in assay [1] stood at 93.52%. The values for the inhibition in vivo at 200 mg/kg in assay [2], in assay [3] and in assay [4] were 74.2%, 29.8% and 24.5%, respectively.

On to `CC(C)Cc1ccc(C(C)C(=O)O)cc1` (configuration not stated) [IBUPROFEN], for which the Activity in assay [1] was found to be 158.56%. In addition, the inhibition in vivo at 200 mg/kg worked out at 84.1% in assay [2], 53.2% in assay [3] and 40.1% in assay [4].
